{"source": "patent US20020086061A1", "about": "(priority 1999, published 2002)", "key": {"[1]": {"assay": "pH of excipient and felodipine suspensions before and after heat treatment (Example 11)", "assay_type": "physicochemical", "experimental": "The heat treatment step involved heating the mixture at reflux for 15 minutes and allowing the mixture to stand over night."}, "[2]": {"assay": "Aqueous solubility of felodipine", "assay_type": "physicochemical"}}, "data": [{"smiles": "O=P([O-])([O-])O.[Ca+2]", "note": "[Dibasic calcium phosphate (DCP), Dibasic calcium phosphate]", "values": [{"measurement": "pH", "setting": "[1]; Heat Treatment (reflux 15 minutes, stand over night)", "result": 4.07}, {"measurement": "Δ pH", "setting": "[1]; Heat Treatment versus Initial", "result": "−3.32"}, {"measurement": "pH", "setting": "[1]; Initial", "result": 7.39}]}, {"smiles": "CCOC(=O)C1=C(C)NC(C)=C(C(=O)OC)C1c1cccc(Cl)c1Cl", "note": "(racemic) [felodipine]", "values": [{"measurement": "aqueous solubility", "setting": "[2]; all pH levels", "result": "about 0.0001%"}, {"measurement": "solubility", "setting": "[2]; aqueous media", "result": 0.5, "unit": "µg/mL"}]}]}
